According to PubChem BioAssay (NCI):
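Following 48 hours of exposure in 96-well plates, responses at five concentrations were used to interpolate endpoints linearly. Here, GI50 denotes the concentration required for 50% inhibition of growth. TGI: total growth inhibition.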

Columns and labels:
Test in all cases: inhibition of tumour cell growth, NCI panel, 48 h
U251 CNS = system: U251 CNS
DU-145 prostate = system: DU-145 prostate
SN12C renal = system: SN12C renal
EKVX NSCLC = system: EKVX NSCLC
HT29 colon = system: HT29 colon
UACC-62 melanoma = system: UACC-62 melanoma
SNB-75 CNS = system: SNB-75 CNS
MCF7 breast = system: MCF7 breast
A549 NSCLC = system: A549 NSCLC
HS 578T breast = system: HS 578T breast

SMILES	GI50 (U251 CNS) [nM]	TGI (U251 CNS) [µM]	GI50 (DU-145 prostate) [nM]	TGI (DU-145 prostate) [µM]	GI50 (SN12C renal) [nM]	TGI (SN12C renal) [µM]	GI50 (EKVX NSCLC) [nM]	TGI (EKVX NSCLC) [µM]	GI50 (HT29 colon) [nM]	TGI (HT29 colon) [µM]	GI50 (UACC-62 melanoma) [nM]	TGI (UACC-62 melanoma) [µM]	GI50 (SNB-75 CNS) [nM]	TGI (SNB-75 CNS) [µM]	GI50 (MCF7 breast) [nM]	TGI (MCF7 breast) [µM]	GI50 (A549 NSCLC) [nM]	TGI (A549 NSCLC) [µM]	GI50 (HS 578T breast) [nM]	TGI (HS 578T breast) [µM]
CCCCCCCCCCCCOC1C(C(CC(=O)N2CCN(c3cccc(C(F)(F)F)c3)CC2)NS(=O)(=O)c2cc(Cl)cc(Cl)c2)OC2OC(C)(C)OC21 (stereo not given)	> 100000	> 100	> 100000	> 100	> 100000	> 100	> 100000	> 100	> 100000	> 100	> 100000	> 100	> 100000	> 100	> 100000	> 100	> 100000	> 100	> 100000	> 100
O=C(NCc1ccncc1)C12CC3CC(C1)CC(c1ccc(Cl)cc1)(C3)C2	14200	28.6	14800	28.6	13400	27.3	11600	26.3	11900	25.4	5020	18.7	13200	27.2	10200	27.8	15000	30.8	12900	31.7
CN(C)CCCNC(=O)c1cncnc1Nc1ccc(OCc2cccc(F)c2)c(Cl)c1	1660	3.26	1760	3.2	1670	3.14	1580	3.15	1710	3.34	1820	3.22	1640	3.22	1560	3.06	1710	3.37	1560	3.3
COc1cnc2c(c1)C(=O)c1c-2n(CCCNC(C)C)c(=O)c2cc(F)ccc12	78.8	0.397	210	1.04	164	0.831	299	1.73	73.1	0.33	271	1.27	219	1.39	31.8	2.08	71.8	0.239	754	5.22
CC1=C([Te]c2ccc(O)cc2)C(=O)c2ccccc2C1=O	1310	7.28	2320	6.02	2290	9.33	428	6.58	396	1.55	1600	4.01	1310	9.02	1490	4.08	404	4.18	1830	7.6
CCOC(=O)C(C)(C)C(O)C(C)C (stereo not given)	–	> 100	–	> 100	–	> 100	–	> 100	–	> 100	–	> 100	–	> 100	–	> 100	–	> 100	–	> 100
CCOC(=O)[C@@H](C)C[C@H](Cc1ccccc1)NC(=O)c1csc([C@@H](C[C@H](C(C)C)N(C)C(=O)[C@H](CC)NC(=O)[C@H]2CCCCN2C)OC(C)=O)n1	3.1	> 16.7	< 1.67	0.253	5.15	> 16.7	4.84	> 16.7	< 1.67	> 16.7	< 1.67	> 16.7	< 1.67	> 16.7	< 1.67	> 16.7	4.15	> 16.7	4.05	> 15.5
